Species: Rattus norvegicus
Assay: Open TG-GATES - Regimen: Daily Repeat
Format: toxicity, organism-based, Sprague-Dawley
Parameters: regimen Daily Repeat, gender Male, age 6 weeks
Settings: in vivo, po, 0 mg/kg, route gavage, dose level Control; for APTT / Bas / Eos / Fbg / Hb / Ht / Lym / MCH / MCHC / MCV / Mono / Neu / PT / Plat / RBC / Ret / WBC: tissue Blood; for KIDNEY_L / KIDNEY_R / KIDNEY_TOTAL: tissue Kidney; for LIVER: tissue Liver; for A/G / ALP / ALT / AST / BUN / CRE / Ca / Cl / DBIL / GLC / IP / K / LDH / Na / PL / RALB / TBIL / TC / TG / TP / gamma-GTP: tissue Plasma

With `CCSCC[C@H](N)C(=O)O` [ETHIONINE] the TERMINAL_BW (72 h, time 3 day) was 234.6 g, the APTT (72 h, time 3 day) was 19.8 s and the Bas (72 h, time 3 day) was 0%. The Eos (72 h, time 3 day) was 1%, the Fbg (72 h, time 3 day) was 226.8 mg/dL and the Hb (72 h, time 3 day) was 13 g/dL. It also gave a Ht (72 h, time 3 day) of 38.3%, a Lym (72 h, time 3 day) of 78.2% and an MCH (72 h, time 3 day) of 21 pg. For the same molecule, the MCHC (72 h, time 3 day) was 34%, the MCV (72 h, time 3 day) was 61.7 fL and the Mono (72 h, time 3 day) was 3%. For the same molecule, the Neu (72 h, time 3 day) was 17.2%, the PT (72 h, time 3 day) was 12 s and the Plat (72 h, time 3 day) was 126.2 x10_4/uL. The RBC (72 h, time 3 day) was 621.6 x10_4/ul, the Ret (72 h, time 3 day) was 5.9% and the WBC (72 h, time 3 day) was 113.1 x10_2/uL. The KIDNEY_L (72 h, time 3 day) was 1.1 g, the KIDNEY_R (72 h, time 3 day) was 1.1 g and the KIDNEY_TOTAL (72 h, time 3 day) was 2.1 g. It also gave an LIVER (72 h, time 3 day) of 10.9 g, an A/G (72 h, time 3 day) of 1.6 and an ALP (72 h, time 3 day) of 977.6 IU/L. The ALT (72 h, time 3 day) was 35.6 IU/L, the AST (72 h, time 3 day) was 68 IU/L and the BUN (72 h, time 3 day) was 13.8 mg/dL. For the same molecule, the CRE (72 h, time 3 day) was 0.4 mg/dL, the Ca (72 h, time 3 day) was 10.8 mg/dL and the Cl (72 h, time 3 day) was 101 meq/L. For the same molecule, the DBIL (72 h, time 3 day) was 0.08 mg/dL, the GLC (72 h, time 3 day) was 210.2 mg/dL and the IP (72 h, time 3 day) was 7.8 mg/dL. It also gave a K (72 h, time 3 day) of 3.9 meq/L, an LDH (72 h, time 3 day) of 174.8 IU/L and a Na (72 h, time 3 day) of 140.4 meq/L. The PL (72 h, time 3 day) was 149 mg/dL, the RALB (72 h, time 3 day) was 3.4 g/dL and the TBIL (72 h, time 3 day) was 0.1 mg/dL. For the same molecule, the TC (72 h, time 3 day) was 74 mg/dL, the TG (72 h, time 3 day) was 99.2 mg/dL and the TP (72 h, time 3 day) was 5.5 g/dL. The gamma-GTP (72 h, time 3 day) was 1 IU/L, the TERMINAL_BW ([…], time 7 day) was 269.1 g and the TERMINAL_BW ([…], time 14 day) was 307.1 g. It also gave a TERMINAL_BW ([…], time 28 day) of 407.1 g, an APTT ([…], time 7 day) of 20.5 s and a Bas ([…], time 7 day) of 0%. For the same molecule, the Eos ([…], time 7 day) was 0.8%, the Fbg ([…], time 7 day) was 222.8 mg/dL and the Hb ([…], time 7 day) was 14 g/dL. The Ht ([…], time 7 day) was 41.2%, the Lym ([…], time 7 day) was 79% and the MCH ([…], time 7 day) was 21.1 pg. The MCHC ([…], time 7 day) was 34%, the MCV ([…], time 7 day) was 61.8 fL and the Mono ([…], time 7 day) was 2.8%. The Neu ([…], time 7 day) was 16.6%, the PT ([…], time 7 day) was 12.1 s and the Plat ([…], time 7 day) was 123.3 x10_4/uL. The RBC ([…], time 7 day) was 666 x10_4/ul, the Ret ([…], time 7 day) was 5.6% and the WBC ([…], time 7 day) was 125.1 x10_2/uL. It also gave an APTT ([…], time 14 day) of 18.9 s, a Bas ([…], time 14 day) of 0% and an Eos ([…], time 14 day) of 1%. The Fbg ([…], time 14 day) was 213.6 mg/dL, the Hb ([…], time 14 day) was 14.5 g/dL and the Ht ([…], time 14 day) was 42.1%. It also gave a Lym ([…], time 14 day) of 77.2%, an MCH ([…], time 14 day) of 20.3 pg and an MCHC ([…], time 14 day) of 34.5%. For the same molecule, the MCV ([…], time 14 day) was 58.9 fL, the Mono ([…], time 14 day) was 2.4% and the Neu ([…], time 14 day) was 18.8%. For the same molecule, the PT ([…], time 14 day) was 11.9 s, the Plat ([…], time 14 day) was 114.5 x10_4/uL and the RBC ([…], time 14 day) was 714.8 x10_4/ul. For the same molecule, the Ret ([…], time 14 day) was 3.8%, the WBC ([…], time 14 day) was 113.5 x10_2/uL and the APTT ([…], time 28 day) was 20.5 s. It also gave a Bas ([…], time 28 day) of 0%, an Eos ([…], time 28 day) of 1% and a Fbg ([…], time 28 day) of 216 mg/dL. It also gave a Hb ([…], time 28 day) of 15.3 g/dL, a Ht ([…], time 28 day) of 43.5% and a Lym ([…], time 28 day) of 79.2%. For the same molecule, the MCH ([…], time 28 day) was 19.6 pg, the MCHC ([…], time 28 day) was 35.1% and the MCV ([…], time 28 day) was 55.9 fL. For the same molecule, the Mono ([…], time 28 day) was 2%, the Neu ([…], time 28 day) was 16.8% and the PT ([…], time 28 day) was 12.4 s. The Plat ([…], time 28 day) was 113.3 x10_4/uL, the RBC ([…], time 28 day) was 778.4 x10_4/ul and the Ret ([…], time 28 day) was 2.2%. The WBC ([…], time 28 day) was 104.9 x10_2/uL, the KIDNEY_L ([…], time 7 day) was 1.1 g and the KIDNEY_R ([…], time 7 day) was 1.1 g. It also gave a KIDNEY_TOTAL ([…], time 7 day) of 2.2 g, a KIDNEY_L ([…], time 14 day) of 1.2 g and a KIDNEY_R ([…], time 14 day) of 1.2 g. For the same molecule, the KIDNEY_TOTAL ([…], time 14 day) was 2.4 g, the KIDNEY_L ([…], time 28 day) was 1.5 g and the KIDNEY_R ([…], time 28 day) was 1.5 g. For the same molecule, the KIDNEY_TOTAL ([…], time 28 day) was 2.9 g, the LIVER ([…], time 7 day) was 12.6 g and the LIVER ([…], time 14 day) was 13 g. It also gave an LIVER ([…], time 28 day) of 16.6 g, an A/G ([…], time 7 day) of 1.5 and an ALP ([…], time 7 day) of 874.2 IU/L. The ALT ([…], time 7 day) was 34.6 IU/L, the AST ([…], time 7 day) was 62.2 IU/L and the BUN ([…], time 7 day) was 16.8 mg/dL. The CRE ([…], time 7 day) was 0.4 mg/dL, the Ca ([…], time 7 day) was 10.7 mg/dL and the Cl ([…], time 7 day) was 103.2 meq/L. The DBIL ([…], time 7 day) was 0.092 mg/dL, the GLC ([…], time 7 day) was 198 mg/dL and the IP ([…], time 7 day) was 7.6 mg/dL. The K ([…], time 7 day) was 3.8 meq/L, the LDH ([…], time 7 day) was 173.8 IU/L and the Na ([…], time 7 day) was 140.6 meq/L. The PL ([…], time 7 day) was 153 mg/dL, the RALB ([…], time 7 day) was 3.5 g/dL and the TBIL ([…], time 7 day) was 0.2 mg/dL. The TC ([…], time 7 day) was 70.6 mg/dL, the TG ([…], time 7 day) was 131.8 mg/dL and the TP ([…], time 7 day) was 5.8 g/dL. For the same molecule, the gamma-GTP ([…], time 7 day) was 0.8 IU/L, the A/G ([…], time 14 day) was 1.5 and the ALP ([…], time 14 day) was 742.4 IU/L. It also gave an ALT ([…], time 14 day) of 34.8 IU/L, an AST ([…], time 14 day) of 60.6 IU/L and a BUN ([…], time 14 day) of 16 mg/dL. It also gave a CRE ([…], time 14 day) of 0.4 mg/dL, a Ca ([…], time 14 day) of 10.6 mg/dL and a Cl ([…], time 14 day) of 102.4 meq/L. It also gave a DBIL ([…], time 14 day) of 0.082 mg/dL, a GLC ([…], time 14 day) of 240.8 mg/dL and an IP ([…], time 14 day) of 7.6 mg/dL. For the same molecule, the K ([…], time 14 day) was 3.4 meq/L, the LDH ([…], time 14 day) was 177.2 IU/L and the Na ([…], time 14 day) was 141 meq/L. The PL ([…], time 14 day) was 144.6 mg/dL, the RALB ([…], time 14 day) was 3.5 g/dL and the TBIL ([…], time 14 day) was 0.1 mg/dL. The TC ([…], time 14 day) was 70 mg/dL, the TG ([…], time 14 day) was 125.2 mg/dL and the TP ([…], time 14 day) was 5.8 g/dL. The gamma-GTP ([…], time 14 day) was 0.8 IU/L, the A/G ([…], time 28 day) was 1.3 and the ALP ([…], time 28 day) was 506.2 IU/L. It also gave an ALT ([…], time 28 day) of 32.2 IU/L, an AST ([…], time 28 day) of 65.2 IU/L and a BUN ([…], time 28 day) of 18.8 mg/dL. It also gave a CRE ([…], time 28 day) of 0.5 mg/dL, a Ca ([…], time 28 day) of 10.4 mg/dL and a Cl ([…], time 28 day) of 103 meq/L. The DBIL ([…], time 28 day) was 0.1 mg/dL, the GLC ([…], time 28 day) was 233 mg/dL and the IP ([…], time 28 day) was 7.1 mg/dL. The K ([…], time 28 day) was 3.8 meq/L, the LDH ([…], time 28 day) was 223.6 IU/L and the Na ([…], time 28 day) was 141.2 meq/L. For the same molecule, the PL ([…], time 28 day) was 145.8 mg/dL, the RALB ([…], time 28 day) was 3.4 g/dL and the TBIL ([…], time 28 day) was 0.1 mg/dL. For the same molecule, the TC ([…], time 28 day) was 72 mg/dL, the TG ([…], time 28 day) was 115.2 mg/dL and the TP ([…], time 28 day) was 6.1 g/dL. For the same molecule, the gamma-GTP ([…], time 28 day) was 0.8 IU/L.

From ChEMBL document CHEMBL3885861, “Open TG-GATES”
